Laboratory results from patent publication US20050203067A1, “Pesticidal compositions and methods” (priority 2003, published 2005).
≈ marks a conversion by molar mass, not a printed value. Where “and” joins values, the source holds several entries; their conditions need not be identical. Equal entries are not always repeated. Entries after “also recorded” stand apart in the source; their conditions may differ. Where two headings read alike, the source gives them in different places.

Legend:
C. elegans [1] = assay: Nematicidal activity of ethanolamine-like compounds on NGM plates (L4 P0, F1 phenotype); type: in vivo, Caenorhabditis elegans
A. ellesmerensis = assay: Nematicidal activity against other nematodes (F1 phenotype); type: in vivo, Acrobiloides ellesmerensis
Cephalobus sp. = assay: as above; type: in vivo
C. elegans (strain N2) = assay: C. elegans contact assay (NGM-agar, 24-well); type: in vivo
cucumber seedling = assay: Miniaturized greenhouse assay, phytotoxicity rating; conditions: for Ptox 40 (phytotoxicity rating): 40 ppm; for Ptox 200 (phytotoxicity rating): 200 ppm
[2] = system: Meloidogyne incognita J2 larvae; assay: Miniaturized greenhouse assay on cucumber seedlings, root gall rating; type: in vivo; conditions: for Gall 40 (gall rating): 40 ppm; for Gall 200 (gall rating): 200 ppm
C. elegans [3] = assay: C. elegans agar (plate) assay; type: in vivo; conditions: Caenorhabditis elegans, read-out: Plate EC50
C. elegans [4] = assay: C. elegans liquid (well) assay; type: in vivo; conditions: Caenorhabditis elegans, read-out: Well EC50
P. falciparum = conditions: cited from earlier work
P. falciparum PEAMT = P. falciparum PEAMT (Plasmodium falciparum, UniProt Q8IDQ9); conditions: cited from earlier work
[5] = system: C. elegans PEAMT1 RNAi-generated mutants; type: in vivo; conditions: for rescue of PEAMT1 mutants: 5 mM
[6] = system: C. elegans PEAMT2 RNAi-generated mutants; conditions: in vivo
Sclerotinia sclerotiorum = assay: microbe, parasite or virus in culture; type: cell-based; conditions: read-out: growth inhibition
[7] = system: root knot nematode (Meloidogyne incognita); conditions: in vivo
tomato plants = conditions: in vivo
Botrytis cinerea = assay: microbe, parasite or virus in culture; type: cell-based; conditions: read-out: growth inhibition
Fusarium graminearum = assay: microbe, parasite or virus in culture; type: cell-based; conditions: read-out: growth inhibition
Alternaria solani = assay: microbe, parasite or virus in culture; type: cell-based; conditions: read-out: growth inhibition
several arthropods = conditions: in vivo
[8] = L4 P0 on NGM plates, 23° C., visual observation over several days
[9] = Caenorhabditis elegans, average number of adults in 4 replicate wells 96 hours after challenge, 20° C., read-out: EC50
[10] = rating scale 0-3 (% plant weight reduction)
[11] = 10 days after inoculation, rating scale 0-3 (% root mass galled)

P. falciparum PEAMT, sequence (Q8IDQ9 whole entry): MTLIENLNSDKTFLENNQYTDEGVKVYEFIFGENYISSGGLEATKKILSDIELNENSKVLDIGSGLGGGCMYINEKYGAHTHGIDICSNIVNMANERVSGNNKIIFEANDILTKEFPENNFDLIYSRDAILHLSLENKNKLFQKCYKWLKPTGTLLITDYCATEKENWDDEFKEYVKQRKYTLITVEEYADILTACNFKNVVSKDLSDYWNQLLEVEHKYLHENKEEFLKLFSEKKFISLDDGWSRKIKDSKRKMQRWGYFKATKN

## NCC(O)c1ccccc1 (centres unmarked) [2-amino-1-phenylethanol]
C. elegans [1]; C. elegans, 25 mM
  F1 PHENOTYPE: Wild-type development
C. elegans [1]; [8]
  nematicidal activity against C. elegans: no nematicidal effect

## CC(C)(C)NCCO [Compound 3703, 2-(tert-Butylamino)ethanol]
A. ellesmerensis; A. ellesmerensis, 10 mM
  F1 PHENOTYPE: L1/L2 arrest/lethality
Cephalobus sp.; Cephalobus sp., 10 mM
  F1 PHENOTYPE: L1/L2 arrest/lethality
C. elegans (strain N2); [9]
  EC50: 4100 µM
C. elegans [1]; C. elegans, 10 mM
  F1 PHENOTYPE: L1/L2 arrest/lethality
C. elegans [1]; [8]
  nematicidal activity against C. elegans: showed nematicidal activity

## OCCNc1ccccc1 [Compound 3733, N-(2-Hydroxyethyl)aniline]
C. elegans (strain N2); [9]
  EC50: 4200 µM
C. elegans [1]; C. elegans, 10 mM
  F1 PHENOTYPE: L1/L2 arrest/lethality
C. elegans [1]; [8]
  nematicidal activity against C. elegans: showed nematicidal activity

## CCNc1ccc(/N=N/c2ccc(Br)cc2)cc1 [DC3800, [4-(4-Bromo-phenylazo)-phenyl]-ethyl-amine]
Cucumber seedling; [10]
  Ptox 40 (phytotoxicity rating): 0.00
  Ptox 200 (phytotoxicity rating): 2.67
[2]; [11]
  Gall 40 (gall rating): 1.33
  Gall 200 (gall rating): 0.00
C. elegans [3]; agar (plate) assay, 20° C.
  EC50: 0.4 µg/mL (≈ 1.31 µM)
C. elegans [4]; liquid (well) assay, 20° C.
  EC50: 0.2 to 0.4 µg/mL (≈ 0.657 to 1.31 µM)

## CCCCCCCCCCCCCCCCOP(=O)([O-])OCC[N+](C)(C)C [miltefosine]
P. falciparum
  parasite proliferation within human erythrocytes: inhibits parasite proliferation
P. falciparum PEAMT
  inhibition of the plasmodium PEAMT enzyme: inhibited

## CNc1ccc(N=Nc2ccccc2)cc1 [DC3845, Methyl-(4-phenylazo-phenyl)-amine]
Cucumber seedling
  Ptox 40 (phytotoxicity rating): 1.00
  Ptox 200 (phytotoxicity rating): 3.00
[2]
  Gall 40 (gall rating): 0.33
  Gall 200 (gall rating): 0.00
C. elegans [3]
  EC50: 0.4 µg/mL (≈ 1.89 µM)
C. elegans [4]
  EC50: 0.4 to 0.8 µg/mL (≈ 1.89 to 3.79 µM)

## CNCCO [MME, monomethylethanolamine]
[5]
  rescue of PEAMT1 mutants: rescued
[5]; in vivo
  F1 phenotype PEAMT1 dsRNA: Fertile adults
[6]
  F1 phenotype PEAMT2 dsRNA: L1/L2 arrest/lethality

## NCCO [EA, ethanolamine]
[5]; in vivo
  F1 phenotype PEAMT1 dsRNA: L1/L2 arrest/lethality
[6]
  F1 phenotype PEAMT2 dsRNA: L1/L2 arrest/lethality

## CCN(C)c1ccc(/N=N/c2ccccc2)cc1 [Compound 3761, 4-N-ethyl-N-methylaminoazobenzene]
Cucumber seedling; [10]
  Ptox 40 (phytotoxicity rating): 0.00
  Ptox 200 (phytotoxicity rating): 1.00
[2]; [11]
  Gall 40 (gall rating): 0.67
  Gall 200 (gall rating): 0.00
C. elegans [3]; agar (plate) assay, 20° C.
  EC50: 0.8 µg/mL (≈ 3.34 µM)
C. elegans (strain N2); [9]
  EC50: 7 µM
C. elegans [4]; liquid (well) assay, 20° C.
  EC50: 6.3 to 12.5 µg/mL (≈ 26.3 to 52.2 µM)

## CCNc1ccc(/N=N/c2ccc(C)cc2)cc1 [DC3801, Ethyl-(4-p-tolylazo-phenyl)-amine]
Cucumber seedling; [10]
  Ptox 40 (phytotoxicity rating): 1.67
  Ptox 200 (phytotoxicity rating): 3.00
[2]; [11]
  Gall 40 (gall rating): 1.33
  Gall 200 (gall rating): 0.00
C. elegans [3]; agar (plate) assay, 20° C.
  EC50: 0.4 µg/mL (≈ 1.67 µM)
C. elegans [4]; liquid (well) assay, 20° C.
  EC50: 0.2 to 0.4 µg/mL (≈ 0.836 to 1.67 µM)

## O=S(=O)(F)CCNc1ccc(N=Nc2ccccc2)cc1 [Compound 3746, 2-(4-phenylazo-phenylamino)-ethanesulfonyl fluoride]
Various fungal species
  toxicity to fungal species: Low to moderate toxicity
Cucumber seedling
  Ptox 200 (phytotoxicity rating): 3.00 and 2.67
Sclerotinia sclerotiorum; 16.3 μM
  inhibition at 16.3 µM: < 25%
Sclerotinia sclerotiorum; 163 μM
  inhibition at 163 µM: > 75%
[7]
  nematode control (gall ratings): nematode control approaching that of the commercial nematicides fenamiphos (Nemacur)
Tomato plants
  phytotoxicity (root weights): no phytoxicity
Corn ear worm; 2500 μM
  Result (arthropod toxicity): Non-effect
Corn ear worm; 25000 μM
  Result (arthropod toxicity): Lethal
Botrytis cinerea; 1.63 μM
  inhibition at 1.63 µM: < 25%
Botrytis cinerea; 16.3 μM
  inhibition at 16.3 µM: > 75%
[2]
  Gall 40 (gall rating): 1.33 and 2.00
  Gall 200 (gall rating): 0.00
C. elegans [3]
  EC50: 1.6 µg/mL (≈ 5.21 µM)
C. elegans (strain N2); Caenorhabditis elegans, 96 h
  EC50: 2 µM
Fusarium graminearum; 1.63 μM
  inhibition at 1.63 µM: < 25%
Fusarium graminearum; 16.3 μM
  inhibition at 16.3 µM: > 75%
C. elegans [4]
  EC50: 6.3 to 12.5 µg/mL (≈ 20.5 to 40.7 µM)
Alternaria solani; 1.63 μM
  inhibition at 1.63 µM: < 25%
Alternaria solani; 16.3 μM
  inhibition at 16.3 µM: > 75%
Several arthropods
  toxicity to arthropods: not toxic
Beet army worm; 2500 μM
  Result (arthropod toxicity): No effect
Beet army worm; 25000 μM
  Result (arthropod toxicity): Lethal

## CN(C)CCO [DME, dimethylethanolamine]
[5]
  rescue of PEAMT1 mutants: rescued
[5]; in vivo
  F1 phenotype PEAMT1 dsRNA: Fertile adults
  rescue of the sterility associated with PEAMT1 RNAi: rescues the sterility
[6]
  F1 phenotype PEAMT2 dsRNA: Sterility; also recorded: L1/L2 arrest/lethality

## N[C@@H](CO)Cc1ccccc1 [Compound 3704, D-Phenylalaninol]
A. ellesmerensis; in vivo
  F1 PHENOTYPE: L1/L2 arrest/lethality
Cephalobus sp.; in vivo
  F1 PHENOTYPE: L1/L2 arrest/lethality
C. elegans (strain N2); Caenorhabditis elegans, 96 h
  EC50: 2500 µM
C. elegans [1]; in vivo
  F1 PHENOTYPE: L1/L2 arrest/lethality
  nematicidal activity against C. elegans: showed nematicidal activity

## O=S(=O)(F)CCNc1ccc(Cl)cc1 [Compound 3738, 2-4-chlorophenylaminoethanesulfonyl fluoride]
C. elegans (strain N2); in vivo, read-out: EC50
  EC50: 82 µM
